# Experimental data from patent publication US20260285850A1, “SUBSTITUTED OXAZOLIDINONES AND IMIDAZOLINONES AS HERBICIDES” (FMC CORPORATION, priority 2023, published 2026).
# What was measured:
# Format in all cases: in vivo
# [1] = system: ducksalad (Heteranthera limosa); test: Test B flooded paddy test, visual plant response rating 0-100; details: 250 g ai/ha, Flood, applied to paddy water, evaluated after 13 days
# Outline: (§1)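 In this flooded assay, 2-leaf seedlings received compound through the water layer, kept at 3 cm over the soil. Plants were held 13 days in a greenhouse and then visually compared with control pots.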
# rice (Oryza sativa) = test: as above; details: 250 g ai/ha, Flood, applied to paddy water, evaluated after 13 days
# Outline: as §1
# [2] = system: barnyardgrass (Echinochloa crusgalli); test: as above; details: 250 g ai/ha, Flood, applied to paddy water, evaluated after 13 days
# Outline: as §1
# [3] = system: sedge, umbrella (small-flower umbrella sedge, Cyperus difformis); test: as above; details: 250 g ai/ha, Flood, applied to paddy water, evaluated after 13 days
# Outline: as §1
# [4] = system: ragweed (common ragweed, Ambrosia artemisiifolia); test: Test A preemergence soil spray, visual injury rating 0-100; details: 10 days; for Ragweed plant response rating: 0 to 100 scale
# Outline: (§2)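 Rating: visual, day 10, untreated plants as reference, 0 no effect to 100 full control. Plants were in loam-sand and were treated either preemergence via directed soil spray or postemergence at the one- to two-leaf stage.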
# [5] = system: wheat (Triticum aestivum); test: as above; details: 10 days; for Wheat plant response rating: 0 to 100 scale
# Outline: as §2
# [6] = system: green foxtail (Setaria viridis); test: as above; details: 10 days; for Foxtail, Green plant response rating: 0 to 100 scale
# Outline: as §2
# [7] = system: blackgrass (Alopecurus myosuroides); test: as above; details: 10 days; for Blackgrass plant response rating: 0 to 100 scale
# Outline: as §2
# soybean (Glycine max) [8] = test: as above; details: 10 days; for Soybean plant response rating: 0 to 100 scale
# Outline: as §2
# [9] = system: ryegrass, Italian (italian ryegrass, Lolium multiflorum); test: as above; details: 10 days; for Ryegrass, Italian plant response rating: 0 to 100 scale
# Outline: as §2
# corn (Zea mays) [10] = test: as above; details: 10 days; for Corn plant response rating: 0 to 100 scale
# Outline: as §2
# [11] = system: oat, wild (wild oat, Avena fatua); test: as above; details: 10 days; for Oat, Wild plant response rating: 0 to 100 scale
# Outline: as §2
# kochia (Bassia scoparia) [12] = test: as above; details: 10 days; for Kochia plant response rating: 0 to 100 scale
# Outline: as §2
# [13] = system: barnyardgrass (Echinochloa crus-galli); test: as above; details: 10 days; for Barnyardgrass plant response rating: 0 to 100 scale
# Outline: as §2
# [14] = system: palmer (palmer amaranth, palmer pigweed, Amaranthus palmeri); test: as above; details: 10 days
# Outline: as §2
# [15] = system: ragweed (common ragweed, Ambrosia artemisiifolia); test: Test A postemergence application, visual injury rating 0-100; details: for Ragweed plant response rating (0 to 100 scale): Postemergence
# Outline: as §2
# [16] = system: wheat (Triticum aestivum); test: as above; details: for Wheat plant response rating (0 to 100 scale): Postemergence
# Outline: as §2
# [17] = system: horseweed (Erigeron canadensis); test: as above; details: for Horseweed plant response rating (0 to 100 scale): Postemergence
# Outline: as §2
# [18] = system: green foxtail (Setaria viridis); test: as above; details: for Foxtail, Green plant response rating (0 to 100 scale): Postemergence
# Outline: as §2
# [19] = system: blackgrass (Alopecurus myosuroides); test: as above; details: for Blackgrass plant response rating (0 to 100 scale): Postemergence
# Outline: as §2
# soybean (Glycine max) [20] = test: as above; details: for Soybean plant response rating (0 to 100 scale): Postemergence
# Outline: as §2
# [21] = system: ryegrass, Italian (italian ryegrass, Lolium multiflorum); test: as above; details: for Ryegrass, Italian plant response rating (0 to 100 scale): Postemergence
# Outline: as §2
# corn (Zea mays) [22] = test: as above; details: for Corn plant response rating (0 to 100 scale): Postemergence
# Outline: as §2
# [23] = system: galium (catchweed bedstraw, Galium aparine); test: as above; details: for Galium plant response rating (0 to 100 scale): Postemergence
# Outline: as §2
# [24] = system: oat, wild (wild oat, Avena fatua); test: as above; details: for Oat, Wild plant response rating (0 to 100 scale): Postemergence
# Outline: as §2
# kochia (Bassia scoparia) [25] = test: as above; details: for Kochia plant response rating (0 to 100 scale): Postemergence
# Outline: as §2
# [26] = system: barnyardgrass (Echinochloa crus-galli); test: as above; details: for Barnyardgrass plant response rating (0 to 100 scale): Postemergence
# Outline: as §2
# [27] = system: palmer (palmer amaranth, palmer pigweed, Amaranthus palmeri); test: as above
# Outline: as §2
# [28] = 8 g ai/ha, 10 days, 0 is no effect, 100 is complete control
# [29] = 31 g ai/ha, greenhouse 10 days, 0 no effect, 100 complete control
# [30] = 62 g ai/ha, 0 = no effect, 100 = complete control
# [31] = 62 g ai/ha, postemergence, 10 days, 0 = no effect, 100 = complete control
# [32] = 16 g ai/ha, greenhouse 10 days, 0 no effect, 100 complete control
compound,measurement,setting,value
CC1(C(=O)NC2C=CC(C(=O)NS(=O)(=O)c3ccccc3)C2)CN(c2cc(F)cc(F)c2)C(=O)O1 (centres unmarked) [Compound 88],"Plant response rating, Ducksalad (0 to 100 scale, 0 is no effect and 100 is complete control)",[1],70
same,"Plant response rating, Rice (0 to 100 scale, 0 is no effect and 100 is complete control)",rice (Oryza sativa),25
same,"Plant response rating, Barnyardgrass (0 to 100 scale, 0 is no effect and 100 is complete control)",[2],15
same,"Plant response rating, Sedge, Umbrella (0 to 100 scale, 0 is no effect and 100 is complete control)",[3],80
same,Ragweed plant response rating,[4]; 8 g ai/ha,0
same,Ragweed plant response rating,[4]; 31 g ai/ha,40
same,Wheat plant response rating,[5]; 8 g ai/ha,0
same,Wheat plant response rating,[5]; 31 g ai/ha,10
same,"Foxtail, Green plant response rating",[6]; 8 g ai/ha,20
same,"Foxtail, Green plant response rating",[6]; 31 g ai/ha,30
same,Blackgrass plant response rating,[7]; 8 g ai/ha,0
same,Blackgrass plant response rating,[7]; 31 g ai/ha,30
same,Soybean plant response rating,soybean (Glycine max) [8]; 8 g ai/ha,0
same,Soybean plant response rating,soybean (Glycine max) [8]; 31 g ai/ha,0
same,"Ryegrass, Italian plant response rating",[9]; 8 g ai/ha,10
same,"Ryegrass, Italian plant response rating",[9]; 31 g ai/ha,50
same,Corn plant response rating,corn (Zea mays) [10]; 8 g ai/ha,0
same,Corn plant response rating,corn (Zea mays) [10]; 31 g ai/ha,0
same,"Oat, Wild plant response rating",[11]; 8 g ai/ha,0
same,"Oat, Wild plant response rating",[11]; 31 g ai/ha,0
same,Kochia plant response rating,kochia (Bassia scoparia) [12]; 8 g ai/ha,0
same,Kochia plant response rating,kochia (Bassia scoparia) [12]; 31 g ai/ha,60
same,Barnyardgrass plant response rating,[13]; 8 g ai/ha,10
same,Barnyardgrass plant response rating,[13]; 31 g ai/ha,40
same,"Pigweed, Palmer plant response rating","[14]; 8 g ai/ha, 0 to 100 scale",50
same,"Amaranth, Palmer (Pigweed, Palmer) plant response rating","[14]; 31 g ai/ha, 0 to 100 scale",80
same,Ragweed plant response rating (0 to 100 scale),[15]; [28],50
same,Ragweed plant response rating (0 to 100 scale),[15]; [29],60
same,Wheat plant response rating (0 to 100 scale),[16]; [28],20
same,Wheat plant response rating (0 to 100 scale),[16]; [29],40
same,Horseweed plant response rating (0 to 100 scale),[17]; [28],0
same,Horseweed plant response rating (0 to 100 scale),[17]; [29],50
same,"Foxtail, Green plant response rating (0 to 100 scale)",[18]; [28],0
same,"Foxtail, Green plant response rating (0 to 100 scale)",[18]; [29],50
same,Blackgrass plant response rating (0 to 100 scale),[19]; [28],0
same,Blackgrass plant response rating (0 to 100 scale),[19]; [29],50
same,Soybean plant response rating (0 to 100 scale),soybean (Glycine max) [20]; [28],0
same,Soybean plant response rating (0 to 100 scale),soybean (Glycine max) [20]; [29],50
same,"Ryegrass, Italian plant response rating (0 to 100 scale)",[21]; [28],0
same,"Ryegrass, Italian plant response rating (0 to 100 scale)",[21]; [29],50
same,Corn plant response rating (0 to 100 scale),corn (Zea mays) [22]; [28],40
same,Corn plant response rating (0 to 100 scale),corn (Zea mays) [22]; [29],90
same,Galium plant response rating (0 to 100 scale),[23]; [28],30
same,Galium plant response rating (0 to 100 scale),[23]; [29],70
same,"Oat, Wild plant response rating (0 to 100 scale)",[24]; [28],20
same,"Oat, Wild plant response rating (0 to 100 scale)",[24]; [29],90
same,Kochia plant response rating (0 to 100 scale),kochia (Bassia scoparia) [25]; [28],30
same,Kochia plant response rating (0 to 100 scale),kochia (Bassia scoparia) [25]; [29],80
same,Barnyardgrass plant response rating (0 to 100 scale),[26]; [28],10
same,Barnyardgrass plant response rating (0 to 100 scale),[26]; [29],100
same,"Pigweed, Palmer plant response rating (0 to 100 scale)","[27]; 8 g ai/ha, Postemergence, 10 days, 0 is no effect, 100 is complete control",40
same,"Amaranth, Palmer / Pigweed, Palmer plant response rating (0 to 100 scale)","[27]; Postemergence, 31 g ai/ha, greenhouse 10 days, 0 no effect, 100 complete control",90
COC(=O)C1C=CC(NC(=O)C2(C)CN(c3cc(F)cc(F)c3)C(=O)O2)C1 (centres unmarked) [Compound 89],"Plant response rating, Ducksalad (0 to 100 scale, 0 is no effect and 100 is complete control)",[1],70
same,"Plant response rating, Rice (0 to 100 scale, 0 is no effect and 100 is complete control)",rice (Oryza sativa),25
same,"Plant response rating, Barnyardgrass (0 to 100 scale, 0 is no effect and 100 is complete control)",[2],95
same,"Plant response rating, Sedge, Umbrella (0 to 100 scale, 0 is no effect and 100 is complete control)",[3],95
same,Ragweed plant response rating,[4]; 16 g ai/ha,0
same,Ragweed plant response rating (0-100),[4]; [30],30
same,Wheat plant response rating,[5]; 16 g ai/ha,90
same,Wheat plant response rating (0-100),[5]; [30],90
same,"Foxtail, Green plant response rating",[6]; 16 g ai/ha,10
same,"Foxtail, Green plant response rating (0-100)",[6]; [30],100
same,Blackgrass plant response rating,[7]; 16 g ai/ha,30
same,Blackgrass plant response rating (0-100),[7]; [30],70
same,Soybean plant response rating,soybean (Glycine max) [8]; 16 g ai/ha,40
same,Soybean plant response rating (0-100),soybean (Glycine max) [8]; [30],80
same,"Ryegrass, Italian plant response rating",[9]; 16 g ai/ha,80
same,"Ryegrass, Italian plant response rating (0-100)",[9]; [30],90
same,Corn plant response rating,corn (Zea mays) [10]; 16 g ai/ha,30
same,Corn plant response rating (0-100),corn (Zea mays) [10]; [30],100
same,"Oat, Wild plant response rating",[11]; 16 g ai/ha,80
same,"Oat, Wild plant response rating (0-100)",[11]; [30],90
same,Kochia plant response rating,kochia (Bassia scoparia) [12]; 16 g ai/ha,90
same,Kochia plant response rating (0-100),kochia (Bassia scoparia) [12]; [30],100
same,Barnyardgrass plant response rating,[13]; 16 g ai/ha,70
same,Barnyardgrass plant response rating (0-100),[13]; [30],100
same,"Pigweed, Palmer plant response rating","[14]; 16 g ai/ha, 0 to 100 scale",80
same,"Pigweed, Palmer plant response rating (0-100)",[14]; [30],100
same,Ragweed plant response rating (0-100),[15]; [31],70
same,Ragweed plant response rating (0 to 100 scale),[15]; [32],50
same,Wheat plant response rating (0-100),[16]; [31],90
same,Wheat plant response rating (0 to 100 scale),[16]; [32],90
same,Horseweed plant response rating (0-100),[17]; [31],80
same,Horseweed plant response rating (0 to 100 scale),[17]; [32],20
same,"Foxtail, Green plant response rating (0-100)",[18]; [31],90
same,"Foxtail, Green plant response rating (0 to 100 scale)",[18]; [32],60
same,Blackgrass plant response rating (0-100),[19]; [31],90
same,Blackgrass plant response rating (0 to 100 scale),[19]; [32],90
same,Soybean plant response rating (0-100),soybean (Glycine max) [20]; [31],50
same,Soybean plant response rating (0 to 100 scale),soybean (Glycine max) [20]; [32],50
same,"Ryegrass, Italian plant response rating (0-100)",[21]; [31],90
same,"Ryegrass, Italian plant response rating (0 to 100 scale)",[21]; [32],90
same,Corn plant response rating (0-100),corn (Zea mays) [22]; [31],100
same,Corn plant response rating (0 to 100 scale),corn (Zea mays) [22]; [32],90
same,Galium plant response rating (0-100),[23]; [31],100
same,Galium plant response rating (0 to 100 scale),[23]; [32],100
same,"Oat, Wild plant response rating (0-100)",[24]; [31],90
same,"Oat, Wild plant response rating (0 to 100 scale)",[24]; [32],90
same,Kochia plant response rating (0-100),kochia (Bassia scoparia) [25]; [31],90
same,Kochia plant response rating (0 to 100 scale),kochia (Bassia scoparia) [25]; [32],80
same,Barnyardgrass plant response rating (0-100),[26]; [31],100
same,Barnyardgrass plant response rating (0 to 100 scale),[26]; [32],90
same,"Pigweed, Palmer plant response rating (0-100)",[27]; [31],90
same,"Pigweed, Palmer plant response rating (0 to 100 scale)","[27]; Postemergence, 16 g ai/ha, greenhouse 10 days, 0 no effect, 100 complete control",70
